In experiment [1] the test system is feeding behavior. Description: ICV TOFA pretreatment and feeding inhibition by IP C-75. In kind it is in vivo, BALB/c mice. The note with it: 2 μg TOFA ICV, 2 hours later 15 mg/kg C-75 IP, food intake over 2 hours. The protocol: This model predicts that feeding inhibition by FAS inhibitors should be attenuated by inhibitors of ACC's. To test this, mice were pretreated with the ACC inhibitor TOFA or vehicle by ICV injection and examined the ability of C-75, administered IP, to inhibit feeding. BALB/c mice were anesthetized with metofane and injected ICV with 2 μg of TOFA or DMSO vehicle. After 2 hours recovery, mice were injected IP with 15 mg C-75/kg or RPMI vehicle and monitored for total food intake over 2 hours. […] In addition, mice were anesthetized and injected ICV with 2 μl of RPMI or C-75 at 2.5 or 5 μg/μl and food intake monitored over 2 (shaded) and 4 (solid) hours. The efficacy of centrally administered TOFA argues for a central (CNS) mechanism of action. ICV administration of C-75 inhibited feeding by 82% (FIG. 5C), supporting the central target action of C-75. FIGS. 5(B) and (C) combine results from 3 experiments with N=3 for each (9 total).

Experiment [2] deals with acetyl CoA carboxylase (ACC). Conditions: previous studies; cited from earlier work.
For experiment [3], the system named is feeding behavior. Description: Reversal of C-75 feeding inhibition by intracerebroventricular NPY. The format is in vivo, mice. Conditions: 500 ng NPY ICV. The protocol:
To confirm this finding, the capacity of NPY to reverse C-75-induced inhibition of feeding was examined. Mice were pretreated with 30_mg/kg of C-75 by I.P. injection. After 4 hours, mice were anaesthetized by inhaled metofane and given a direct intracerebroventricular injection of 500_ng NPY (2.5 μl total volume) or artificial CSF vehicle. Mice were placed into metabolic cages and observed for feeding behavior and monitored for food intake over 18 hours.

On to `CCCCCCCCCCCCCCOc1ccc(C(=O)O)o1` [TOFA], for which, in the experiment on feeding behavior [1], the “food intake in C-75-treated mice after TOFA pretreatment” value is “largely restored food intake”. For the same molecule, in experiment [2], the “effect on fatty acid synthesis” value is reported as “inhibition of fatty acid synthesis” and the effect on feeding entry was “did not inhibit feeding”.

With “NPY: neuropeptide Y, anabolic neuropeptide produced in the hypothalamus that strongly stimulates feeding; injected ICV”, the “feeding behavior after ICV injection” value in the experiment on feeding behavior [3] (mice pretreated with vehicle or C-75) is “rapidly led to voracious feeding”. Besides, the “total food intake in C-75-treated mice” value with feeding behavior [3] (monitored over 18 hours) is “substantially elevate the total food intake”.

These data come from US20100022639A1, “Methods of Inducing Weight Loss” (The Johns Hopkins University School of Medicine Licensing …, priority 2000, published 2010).
